# Source: US9669003B2, “Use of flavone and flavanone derivatives in preparation of sedative and hypnotic drugs” (priority 2012, dated 2017)
# Marks after values point to notes of the source that are not given here.
# Key:
# Assay type in all cases: in vivo
# Kunming mice [1] = assay: Influence on hypnosis effect with pentobarbital sodium doses below the threshold (25 mg/kg i.p.); details: pentobarbital sodium 25 mg/kg i.p. 60 min later, sleep observed in 30 min, n = 10
# Summary of the method: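 Percentage of mice sleeping within 30 min after subthreshold pentobarbital sodium (25 mg/kg i.p.), defined by loss of righting reflex over 1 min, analysed by χ2. Compound in 0.5% CMC-Na given intragastrically at 25/50/100 mg/kg 60 min before; groups of 10 Kunming mice, both sexes.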
# Kunming mice [2] = assay: Influence on hypnosis effect with pentobarbital sodium doses at the threshold (50 mg/kg i.p.); details: pentobarbital sodium 50 mg/kg i.p. 60 min later, x ± s, n = 10
# Summary of the method: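 Pentobarbital sodium (0.3%, 50 mg/kg i.p.) injected 60 min after a single intragastric dose (25, 50, 100 mg/kg, 0.5% CMC-Na vehicle) in Kunming mice, 10 per group, sexes balanced. Onset and length of sleep (righting reflex lost over 1 min) analysed by ANOVA; sleeping incidence by χ2 test.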
# Kunming mice [3] = assay: Influence on autonomic activity of normal mice (ZIL-2 mice autonomic activity meter, counts within 10 min); details: intragastric, x ± s, n = 10; for Times of activities in 1 h after drug administration/10 min: 1 h after administration; for Times of activities in 2 h after drug administration/10 min: 2 h after administration; for Times of activities in 24 h after drug administration/10 min: 24 h after administration
# Summary of the method: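 Activity counts during a 10-min window were taken at 1, 2 and 24 h after dosing in groups of 10 mixed-sex Kunming mice. Compounds were given in 0.5% CMC-Na at 25, 50 or 100 mg/kg. Statistics used Levene's homogeneity test, ANOVA and Dunnett's multiple comparisons.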
# [4] = test drug 25 mg/kg intragastric single dose
# [5] = test drug 50 mg/kg intragastric single dose
# [6] = test drug 100 mg/kg intragastric single dose
# [7] = 25 mg/kg intragastric single dose
# [8] = 50 mg/kg intragastric single dose
# [9] = 100 mg/kg intragastric single dose
SMILES,Number of sleeping animals (Kunming mice [1]; [4]),rate of sleeping (%) (Kunming mice [1]; [4]),Number of sleeping animals (Kunming mice [1]; [5]),rate of sleeping (%) (Kunming mice [1]; [5]),Number of sleeping animals (Kunming mice [1]; [6]),rate of sleeping (%) (Kunming mice [1]; [6]),duration of sleep (Kunming mice [2]; [7]) [min],time to sleep (Kunming mice [2]; [7]) [min],duration of sleep (Kunming mice [2]; [8]) [min],time to sleep (Kunming mice [2]; [8]) [min],duration of sleep (Kunming mice [2]; [9]) [min],time to sleep (Kunming mice [2]; [9]) [min],Times of activities in 1 h after drug administration/10 min (Kunming mice [3]; 25 mg/kg),Times of activities in 2 h after drug administration/10 min (Kunming mice [3]; 25 mg/kg),Times of activities in 24 h after drug administration/10 min (Kunming mice [3]; 25 mg/kg),Times of activities in 1 h after drug administration/10 min (Kunming mice [3]; 50 mg/kg),Times of activities in 2 h after drug administration/10 min (Kunming mice [3]; 50 mg/kg),Times of activities in 24 h after drug administration/10 min (Kunming mice [3]; 50 mg/kg),Times of activities in 1 h after drug administration/10 min (Kunming mice [3]; 100 mg/kg),Times of activities in 2 h after drug administration/10 min (Kunming mice [3]; 100 mg/kg),further results
"COc1cc(OC)c2c(=O)cc(-c3ccc(OC)c(O)c3)oc2c1 [Example 4, 3′-hydroxyl-5,7,4′-trimethoxyl-flavone]",6,60** %,7,70** %,8,80*** %,63.65 ± 19.54,3.75 ± 1.81,69.91 ± 19.82,3.41 ± 1.69,81.66 ± 30.31,2.51 ± 1.61,258.2 ± 44.2 /10 min,250.3 ± 53.9 /10 min,309.1 ± 76.1 /10 min,219.3 ± 42.7 /10 min,223.5 ± 41.3 /10 min,318.4 ± 96.3 /10 min,124.2 ± 49.1 /10 min,127.2 ± 41.9 /10 min,Times of activities in 24 h after drug administration/10 min (Kunming mice [3]; 100 mg/kg): 303.2 ± 90.1 /10 min
"COc1ccc(-c2cc(=O)c3c(OC)cc(O)cc3o2)cc1OC [Example 5, 7-hydroxyl-5,3′,4′-trimethoxyl-flavone]",6,60** %,8,80*** %,9,90*** %,59.92 ± 17.44,3.39 ± 1.71,74.82 ± 22.78,3.26 ± 1.47,89.01 ± 18.25,2.23 ± 1.19,265.2 ± 50.1 /10 min,243.2 ± 42.8 /10 min,292.8 ± 82.1 /10 min,175.4 ± 50.3 /10 min,190.2 ± 56.8 /10 min,295.3 ± 91.3 /10 min,120.2 ± 39.0 /10 min,116.3 ± 49.2 /10 min,Times of activities in 24 h after drug administration/10 min (Kunming mice [3]; 100 mg/kg): 283.5 ± 94.0 /10 min
"COc1ccc(C2CC(=O)c3c(OC)c(OC)c(OC)c(OC)c3O2)cc1OC (stereo not drawn) [Example 48, 5,6,7,8,3′,4′-hexamethoxyl-flavanone]",5,50** %,6,60** %,8,80*** %,50.55 ± 20.76,3.40 ± 1.25,67.54 ± 21.07,3.19 ± 1.21,87.51 ± 24.93,2.05 ± 1.80,225.6 ± 43.2 /10 min,229.4 ± 53.7 /10 min,308.5 ± 75.2 /10 min,145.1 ± 41.6 /10 min,140.6 ± 40.8 /10 min,317.4 ± 95.6 /10 min,120.3 ± 48.3 /10 min,118.5 ± 42.6 /10 min,Times of activities in 24 h after drug administration/10 min (Kunming mice [3]; 100 mg/kg): 302.1 ± 89.0 /10 min
C=Cc1cc(-c2cc(=O)c3c(C4CCSC4)cc(C(N)=O)cc3o2)cc(N)c1CC (stereo not drawn) [Example 17],3,30%,6,60** %,7,70** %,32.56 ± 25.95,5.55 ± 1.45,45.62 ± 21.08,3.97 ± 1.26,57.86 ± 25.22,3.96 ± 1.14,284.9 ± 49.3 /10 min,280.1 ± 42.7 /10 min,306.2 ± 81.3 /10 min,176.6 ± 50.2 /10 min,189.3 ± 57.3 /10 min,291.5 ± 70.0 /10 min,153.1 ± 38.4 /10 min,135.9 ± 48.7 /10 min,Times of activities in 24 h after drug administration/10 min (Kunming mice [3]; 100 mg/kg): 302.1 ± 89.0 /10 min
Cc1cc(C2CC(=O)c3c(cccc3[N+](=O)[O-])O2)ccc1Oc1ccccc1 (stereo not drawn) [Example 63],6,60** %,8,80*** %,9,90*** %,47.87 ± 14.62,3.43 ± 1.46,62.64 ± 22.64,3.09 ± 1.41,87.42 ± 18.53,2.33 ± 1.27,250.6 ± 35.5 /10 min,239.3 ± 34.6 /10 min,269.5 ± 79.5 /10 min,168.5 ± 53.0 /10 min,151.3 ± 57.0 /10 min,283.8 ± 79.3 /10 min,124.5 ± 42.0 /10 min,117.3 ± 54.8 /10 min,Times of activities in 24 h after drug administration/10 min (Kunming mice [3]; 100 mg/kg): 320.3 ± 76.0 /10 min
